The results in this text go back to patent US12589101B2, “Cyclodextrin protein drug conjugates” (Regeneron Pharmaceuticals, Inc., priority 2017, dated 2026).

Values after ≈ are worked out from the molar mass of the structure shown. Read-outs that look alike come from different tables or passages of the source.

For one series, the target named is Cathepsin B (Homo sapiens, UniProt P07858). Nature of the series: Cathepsin B cleavage rate of linker-payloads (Example 66). The series is classed as biochemical. The settings on record: Cathepsin B cleavage rate; for CapB (%): pH 5.0, 37° C. The protocol:
Step 1: Preparation of Cathepsin B buffer: 0.1 M NaOAc/0.01M DTT (pH5.0) Dissolve 8.3 g/L NaOAc, 1.54 g/L DTT in deionized water. Adjust pH to 5.0 with HCl/sodium hydroxide.
Step 2: Test Cleavage Rate
• 1. Prepare 25 μM of testing sample: To a 2-mL-tube was added 0.5 mg of testing sample, followed by the addition of 0.2 mL of DMSO. The solution was added dropwise into 0.8 mL of 0.1 M NaOAc/0.01 M DTT buffer. The obtained mixtures were sonicated for 5 minutes to obtain clear and colorless solutions. The pH value of the solution was around 5 according to pH test strip. • 2. Preheat assay buffer: 0.1 M NaOAc/0.01 M DTT (pH 5.0) • 3. Spiking solutions for test compounds: 25 μM Spiking solutions for test compounds: Add 2 μL of 5 mM stock solution into 398 μL of 0.1 M NaOAc/0.01 M DTT buffer (pH 5.0). • 4. Prepare 0.47 μg/μL Cathepsin B in 50 mM NaOAc/1 mM EDTA (pH 5.0). Put on ice. • 5. Without CA074 samples: Add 4 μL of 0.47 μg/μL Cathepsin B into 196 μL of 25 μM Spiking solutions (from step 2), incubate the tubes at 37° C. • 6. With CA074 samples: Add 4 μL of 0.47 μg/μL Cathepsin B with 4 μL of 10 mM Inhibitor (CA074) into 196 μL of 25 μM Spiking solutions (from step 2), incubate the tubes. • 7. After quenching, shake the plate and centrifuge them at 14000 rpm. • 8. Transfer 50 μL of the supernatant from each well into a 96-well sample plate containing 50 μL of ultra pure water (Millipore, ZMQS50F01) for LC/MS analysis. Step 3: Test reference compounds: • 9. Preheat assay buffer: 100 mM Na/K phosphate, pH 6.0, with 1.33 mM EDTA and 2 mM DTT. • 10. Prepare 0.024 μg/μL Cathepsin B: Add 1 μL of 0.47 μg/μL Cathepsin B stock into 19 μL of assay buffer (from step 11). • 11. Add 2 μL of 0.024 μg/μL Cathepsin B (from step 12) to a opaque 96-well plate. • 12. Add 96 μL of assay buffer to each sample. • 13. Add 2 μL of the 10 mM substrate Z-RR-MNA (200 μM final concentration). • 14. For negative control (With inhibitor), add 2 μL of 10 mM Inhibitor (CA074): Immediately read the samples in a kinetic mode at excitation of 340 nm/emission of 425 nm (Read the plate every 30 Second for 3 min). Step 4: Stability of Cathepsin B in incubation samples: • 15. Take 5 μL of incubation samples into 93 μL of assay buffer (from step 11), and then add 2 μL of 10 mM substrate (Z-RR-MNA). • 16. Incubate the samples at 37° C. for 2 min. • 17. Read the samples at excitation of 340 nm/emission of 425 nm.

Series [1] can be described thus: Solubility of linker-payloads (LC-MS standard curve, saturated solution). Type of series: physicochemical. The settings on record: water, thermodynamic from solid. The protocol:
The following test assays the solubility of the linker-payloads with a cyclodextrin moiety and the linker-payloads without a cyclodextrin moiety.
The test compounds were dissolved in DMSO to build a standard curve using LC-MS method A or B. The test sample was dissolved in water and sonicated for 10 minutes, and then centrifuged. The upper clear solution was analyzed using the same method A or B and the solubility was calculated based on its peak area.
Detailed test procedures were as follows: • 1. […] 0.05 mg of compound was suspended in water (1 mL) and sonicated for 10 minutes. After centrifugation, the clear solution above was collected to provide the saturated sample solution. • 3. All the standard solutions A, B, C, D, E and sample solution were analyzed by LCMS (using the same method and same injection volume) to obtain the peak areas. • 4. Calculate the standard curve according to the data of A-D (X=concentration, Y=peak areas). • 5. Calculate to obtain the concentration of saturated sample solution according to the functions obtained above.

For `CC[C@H](C)[C@@H]([C@@H](CC(=O)N1CCC[C@H]1[C@H](OC)[C@@H](C)C(=O)N[C@H](C)[C@@H](O)c1ccccc1)OC)N(C)C(=O)[C@@H](NC(=O)[C@H](C(C)C)N(C)C(=O)OCc1ccc(NC(=O)[C@H](CCCNC(N)=O)NC(=O)[C@@H](NC(=O)[C@@H](CCCCNC(=O)CCOCCOCCOCCOCCNC(=O)COC2CCCCCc3c2nnn3CC2OC3OC4C(CO)OC(OC5C(CO)OC(OC6C(CO)OC(OC7C(CO)OC(OC8C(CO)OC(OC2C(O)C3O)C(O)C8O)C(O)C7O)C(O)C6O)C(O)C5O)C(O)C4O)NC(=O)CCOCCOCCOCCOCCNC(=O)CCC(=O)N2Cc3ccccc3C#Cc3ccccc32)C(C)C)cc1)C(C)C` (stereo partly drawn) [Ex43], the “CapB (%)” value at Cathepsin B is on record as “% (50< % ≤60 CapB (%))”.
For `CC(C)[C@H](NC(=O)[C@@H](CCCCNC(=O)CCOCCOCCOCCOCCNC(=O)COC1CCCCCc2nnn(CC3OC4OC5C(CO)OC(OC6C(CO)OC(OC7C(CO)OC(OC8C(CO)OC(OC9C(CO)OC(OC3C(O)C4O)C(O)C9O)C(O)C8O)C(O)C7O)C(O)C6O)C(O)C5O)c21)NC(=O)CCOCCOCCOCCOCCNC(=O)OCC1C2CCC#CCCC21)C(=O)N[C@@H](CCCNC(N)=O)C(=O)Nc1ccc(COC(=O)NCCOc2ccc3c(c2)[C@@]2(C)CCC[C@](C)(C(=O)NC(=O)[C@@]4(C)CCC[C@]5(C)c6cc(O)ccc6CC[C@@H]45)[C@@H]2CC3)cc1` (stereo partly drawn) [Ex52, BCN-PEG4-D-Lys(PEG4-COT-CD)-vcPAB-1e], the values for the solubility at 10 min in series [1] (Aq. Solubility (mg/mL)) and in series [1] (Solubility) were 300 µg/mL (≈ 102 µM) and 290 µg/mL (≈ 98.7 µM), respectively.
`CC[C@H](C)[C@@H]([C@@H](CC(=O)N1CCC[C@H]1[C@H](OC)[C@@H](C)C(=O)N[C@H](C)[C@@H](O)c1ccccc1)OC)N(C)C(=O)[C@@H](NC(=O)[C@H](C(C)C)N(C)C(=O)OCc1ccc(NC(=O)[C@H](CCCNC(N)=O)NC(=O)[C@@H](NC(=O)[C@@H](CCCCNC(=O)CCOCCOCCOCCOCCNC(=O)COC2CCCCCc3c2nnn3CC2OC3OC4C(CO)OC(OC5C(CO)OC(OC6C(CO)OC(OC7C(CO)OC(OC8C(CO)OC(OC2C(O)C3O)C(O)C8O)C(O)C7O)C(O)C6O)C(O)C5O)C(O)C4O)NC(=O)CCOCCOCCOCCOCCNC(=O)OC[C@@H]2[C@@H]3CCC#CCC[C@@H]32)C(C)C)cc1)C(C)C` (stereo partly drawn) [Ex44]: on Cathepsin B, the “CapB (%)” value is reported as “% (50< % ≤60 CapB (%))”.
In the case of `CCCC1O[C@@H]2C[C@H]3[C@@H]4C[C@H](F)C5=CC(=O)C=C[C@]5(C)[C@@]4(F)[C@@H](O)C[C@]3(C)[C@]2(C(=O)COc2ccc(NC(=O)[C@H](C)NC(=O)[C@@H](NC(=O)[C@@H](CCCCNC(=O)COC3CCCCCc4c3nnn4CC3OC4OC5C(CO)OC(OC6C(CO)OC(OC7C(CO)OC(OC8C(CO)OC(OC9C(CO)OC(OC3C(O)C4O)C(O)C9O)C(O)C8O)C(O)C7O)C(O)C6O)C(O)C5O)NC(=O)CCOCCOCCOCCOCCNC(=O)CCC(=O)N3Cc4ccccc4C#Cc4ccccc43)C(C)C)cc2)O1` (stereo partly drawn) [Ex63, DIBAC-suc-PEG4-dLys(COT-CD)-Val-Ala-1i], the “CapB (%)” value on Cathepsin B is given as “% (% ≤50 CapB (%))”.
As for `CCCC1O[C@@H]2C[C@H]3[C@@H]4C[C@H](F)C5=CC(=O)C=C[C@]5(C)[C@@]4(F)[C@@H](O)C[C@]3(C)[C@]2(C(=O)COc2ccc(NC(=O)OCc3ccc(NC(=O)[C@H](CCCNC(N)=O)NC(=O)[C@@H](NC(=O)[C@@H](CCCCNC(=O)COC4CCCCCc5c4nnn5CC4OC5OC6C(CO)OC(OC7C(CO)OC(OC8C(CO)OC(OC9C(CO)OC(OC%10C(CO)OC(OC4C(O)C5O)C(O)C%10O)C(O)C9O)C(O)C8O)C(O)C7O)C(O)C6O)NC(=O)CCOCCOCCOCCOCCNC(=O)CCC(=O)N4Cc5ccccc5C#Cc5ccccc54)C(C)C)cc3)cc2)O1` (stereo partly drawn) [Ex62, DIBAC-suc-PEG4-dLys(COT-CD)-vcPAB-1i], the capB at Cathepsin B (Table 8A) worked out at 12.8%. Besides, the “CapB (%)” value on Cathepsin B is “% (% ≤50 CapB (%))”.
On to `CCCC1O[C@@H]2C[C@H]3[C@@H]4C[C@H](F)C5=CC(=O)C=C[C@]5(C)[C@@]4(F)[C@@H](O)C[C@]3(C)[C@]2(C(=O)CNC(=O)OCc2ccc(NC(=O)[C@H](CCCNC(N)=O)NC(=O)[C@@H](NC(=O)[C@@H](CCCCNC(=O)COC3CCCCCc4c3nnn4CC3OC4OC5C(CO)OC(OC6C(CO)OC(OC7C(CO)OC(OC8C(CO)OC(OC9C(CO)OC(OC3C(O)C4O)C(O)C9O)C(O)C8O)C(O)C7O)C(O)C6O)C(O)C5O)NC(=O)CCOCCOCCOCCOCCNC(=O)OC[C@@H]3[C@@H]4CCC#CCC[C@@H]43)C(C)C)cc2)O1` (stereo partly drawn) [Ex60, BCN-PEG4-dLys(COT-CD)-vcPAB-1h], for which the “CapB (%)” value on Cathepsin B is reported as “% (% ≤50 CapB (%))”.
Regarding `CC(C)[C@H](NC(=O)[C@@H](CCCCNC(=O)CCOCCOCCOCCOCCNC(=O)COC1CCCCCc2nnn(CC3OC4OC5C(CO)OC(OC6C(CO)OC(OC7C(CO)OC(OC8C(CO)OC(OC9C(CO)OC(OC3C(O)C4O)C(O)C9O)C(O)C8O)C(O)C7O)C(O)C6O)C(O)C5O)c21)NC(=O)CCOCCOCCOCCOCCNC(=O)OCC1C2CCC#CCCC21)C(=O)N[C@@H](C)C(=O)Nc1ccc2c(c1)[C@@]1(C)CCC[C@](C)(C(=O)NC(=O)[C@@]3(C)CCC[C@]4(C)c5cc(O)ccc5CC[C@@H]34)[C@@H]1CC2` (stereo partly drawn) [Ex51, BCN-PEG4-D-Lys(PEG4-COT-CD)-Val-Ala-1d], the solubility (commonly the dissolved amount per volume that the medium holds) at 10 min in series [1] (Aq. Solubility (mg/mL)) worked out at 180 µg/mL (≈ 67.7 µM); in series [1] (Solubility), 330 µg/mL (≈ 124 µM).
As to `CC[C@H](C)[C@@H]([C@@H](CC(=O)N1CCC[C@H]1[C@H](OC)[C@@H](C)C(=O)N[C@H](C)[C@@H](O)c1ccccc1)OC)N(C)C(=O)[C@@H](NC(=O)[C@H](C(C)C)N(C)C(=O)OCc1ccc(NC(=O)[C@H](CCCNC(N)=O)NC(=O)[C@@H](NC(=O)[C@@H](CCCCNC(=O)CCC(=O)N2Cc3ccccc3C#Cc3ccccc32)NC(=O)CCCCCN2C(=O)CC(N3CCN(CC4OC5OC6C(CO)OC(OC7C(CO)OC(OC8C(CO)OC(OC9C(CO)OC(OC%10C(CO)OC(OC4C(O)C5O)C(O)C%10O)C(O)C9O)C(O)C8O)C(O)C7O)C(O)C6O)CC3)C2=O)C(C)C)cc1)C(C)C` (stereo partly drawn) [Ex38], the solubility at 10 min in series [1] (aqueous, read-out: Aq. Solubility) amounted to 500 µg/mL (≈ 180 µM); in series [1] (read-out: Solubility), 250 µg/mL (≈ 90.2 µM).
Consider `CC(C)[C@H](NC(=O)[C@@H](CCCCNC(=O)COC1CCCCCc2c1nnn2CC1OC2OC3C(CO)OC(OC4C(CO)OC(OC5C(CO)OC(OC6C(CO)OC(OC7C(CO)OC(OC1C(O)C2O)C(O)C7O)C(O)C6O)C(O)C5O)C(O)C4O)C(O)C3O)NC(=O)CCOCCOCCOCCOCCNC(=O)OCC1C2CCC#CCCC21)C(=O)N[C@@H](C)C(=O)Nc1ccc2c(c1)[C@@]1(C)CCC[C@](C)(C(=O)NC(=O)[C@@]3(C)CCC[C@]4(C)c5cc(O)ccc5CC[C@@H]34)[C@@H]1CC2` (stereo partly drawn) [Ex54, BCN-PEG4-D-Lys(COT-CD)-Val-Ala-1d], for which the solubility at 10 min in series [1] (Aq. Solubility (mg/mL)) turned out to be 300 µg/mL (≈ 124 µM).
`CC(C)[C@H](NC(=O)[C@@H](CCCCNC(=O)COC1CCCCCc2c1nnn2CC1OC2OC3C(CO)OC(OC4C(CO)OC(OC5C(CO)OC(OC6C(CO)OC(OC7C(CO)OC(OC1C(O)C2O)C(O)C7O)C(O)C6O)C(O)C5O)C(O)C4O)C(O)C3O)NC(=O)CCOCCOCCOCCOCCNC(=O)CCC(=O)N1Cc2ccccc2C#Cc2ccccc21)C(=O)N[C@@H](CCCNC(N)=O)C(=O)Nc1ccc(COC(=O)N[C@@H](CO)C(=O)Nc2ccc3c(c2)[C@@]2(C)CCC[C@](C)(C(=O)NC(=O)[C@@]4(C)CCC[C@]5(C)c6cc(O)ccc6CC[C@@H]45)[C@@H]2CC3)cc1` (stereo partly drawn) [Ex56, DIBAC-suc-PEG4-D-Lys(COT-CD)-vcPAB-1g]: the solubility at 10 min in series [1] (Aq. Solubility (mg/mL)) and in series [1] (Solubility) was less than 100 µg/mL in each case.
